≈ marks a conversion by molar mass, not a printed value.
How the values were obtained:
Format in all cases: functional
Aeromonas veronii [1] = assay: Antimicrobial activity against QnrS2-positive Aeromonas veronii A272 harboring GyrA Ile83 and ParC Ile80 mutant gene by Etest
Aeromonas veronii [2] = assay: Antimicrobial activity against QnrS2-negative Aeromonas veronii CECT 4258 harboring GyrA Ser83 and ParC Ser80 mutant gene by Etest
Escherichia coli [3] = assay: Antimicrobial activity against Escherichia coli J53 by Etest
Aeromonas veronii [4] = assay: Antimicrobial activity against QnrS2-negative Aeromonas veronii CECT 4260 harboring GyrA Ser83 and ParC Ser80 mutant gene by Etest
Escherichia coli [5] = assay: Antimicrobial activity against Escherichia coli J53 harboring QnrS2 and GyrA Ile83 and ParC Ile80 mutant gene by Etest

| SMILES | MIC (Aeromonas veronii [1]) [µg/mL] | MIC (Aeromonas veronii [2]) [µg/mL] | MIC (Escherichia coli [3]) [µg/mL] | MIC (Aeromonas veronii [4]) [µg/mL] | MIC (Escherichia coli [5]) [µg/mL] |
| --- | --- | --- | --- | --- | --- |
| O=C(O)c1cn(C2CC2)c2cc(N3CCNCC3)c(F)cc2c1=O [CIPROFLOXACIN] | 8 (≈ 24.1 µM) | < 0.02 | 0.023 (≈ 0.0694 µM) | < 0.02 |  |
| CCn1cc(C(=O)O)c(=O)c2ccc(C)nc21 [NALIDIXIC ACID] | > 256 | < 0.25 | 4 (≈ 17.2 µM) | < 0.25 | > 256 |
| CCn1cc(C(=O)O)c(=O)c2cc(F)c(N3CCNCC3)cc21 [NORFLOXACIN] | 12 (≈ 37.6 µM) | < 0.02 | 0.19 (≈ 0.595 µM) | < 0.02 | 2 (≈ 6.26 µM) |

Reference: ChEMBL document CHEMBL1275465, “Plasmid-mediated QnrS2 determinant from a clinical Aeromonas veronii isolate” (2008)
